Experimental data as given in patent publication US9096625B2, “BCL-2/BCL-XL inhibitors and therapeutic methods using the same” (THE REGENTS OF THE UNIVERSITY OF MICHIGAN, priority 2013, dated 2015).

How the values were obtained:
Mcl-1 [1] = molecular target: T1, Mcl-1 (Homo sapiens, UniProt Q07820); assay: Fluorescence polarization (FP)-based binding assay, Mcl-1; settings: FP saturation, 2 nM probe, increasing protein concentrations; read-out: Kd of fluorescent probe to Mcl-1
Target sequence in this assay (Q07820 whole entry): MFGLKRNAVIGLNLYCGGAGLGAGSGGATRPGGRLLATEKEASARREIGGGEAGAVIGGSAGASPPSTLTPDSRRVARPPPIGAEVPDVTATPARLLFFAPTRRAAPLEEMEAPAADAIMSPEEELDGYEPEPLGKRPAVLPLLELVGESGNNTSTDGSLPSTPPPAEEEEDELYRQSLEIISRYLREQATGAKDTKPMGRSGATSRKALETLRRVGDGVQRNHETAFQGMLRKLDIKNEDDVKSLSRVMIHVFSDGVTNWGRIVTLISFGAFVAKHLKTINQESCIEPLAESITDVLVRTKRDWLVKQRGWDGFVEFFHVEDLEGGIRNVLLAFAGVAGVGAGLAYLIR

A1 = molecular target: T2, A1 (Homo sapiens, UniProt Q16548); settings: versus Bcl-2, Bcl-xL, Bcl-w; cited from earlier work
T2 sequence (Q16548 1-175): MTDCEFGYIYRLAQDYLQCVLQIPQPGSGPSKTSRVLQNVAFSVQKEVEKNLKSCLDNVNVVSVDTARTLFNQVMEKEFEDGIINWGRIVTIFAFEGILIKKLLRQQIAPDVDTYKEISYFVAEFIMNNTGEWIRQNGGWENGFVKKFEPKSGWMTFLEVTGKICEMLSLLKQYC

Mcl-1 [2] = molecular target: T1, Mcl-1; settings: versus Bcl-2, Bcl-xL, Bcl-w; cited from earlier work
Target sequence in this assay (Q07820 whole entry, species assumed): as the sequence (Q07820 whole entry) above

Molecule	Kd (Mcl-1 [1])	specificity over A1 (A1)	specificity over Mcl-1 (Mcl-1 [2])
Flu-BID: homemade fluorescein labeled BID (79-99) peptide, fluorescent probe for Mcl-1 FP assay	6.8 ± 1.5 nM	–	–
CN(C)CC[C@H](CSc1ccccc1)Nc1ccc(S(=O)(=O)NC(=O)c2ccc(N3CCN(Cc4ccccc4-c4ccc(Cl)cc4)CC3)cc2)cc1[N+](=O)[O-] [ABT-737]	–	high specificity	high specificity
CC1(C)CCC(c2ccc(Cl)cc2)=C(CN2CCN(c3ccc(C(=O)NS(=O)(=O)c4ccc(N[C@H](CCN5CCOCC5)CSc5ccccc5)c(S(=O)(=O)C(F)(F)F)c4)cc3)CC2)C1 [ABT-263]	–	high specificity	high specificity
